Laboratory results taken from patent US20140206559A1, “ASSAY FOR […] OF TUMOR CELLS” (PRESIDENT AND FELLOWS OF HARVARD COLLEGE, priority 2011, published 2014).

Test system: invasive cells (PC-3 and DU-154)
Experiment: three-dimensional in vitro invasion assay (CiGiP, paper-Matrigel layers, calcein stain)
Format: cell-based
Details: PC-3 and DU-154 prostate cancer cells in stacked paper-Matrigel layers; 1-5 days culture of stacked layers; inhibitor of actin-based motility present
Description: The following invasive potential of the cell lines were assessed using the 3D in vitro assay as disclosed herein: Breast cancer cells; triple negative highly invasive cell line MDA-MB-231. Prostate cancer cells: highly invasive PC-3 and DU-154 isolate from bone and brain metastases, weakly invasive LNCaP and CWR-22 lines. Control cells included normal prostate epithelial cells (RWPE-1) and fibroblasts (HIN 3T3) as negative controls.
Permeation of the suspension of cells in Matrigel into paper yielded thin (200 μm) layers of Matrigel with cells trapped within [Derda et al, PNAS 2009; Derda et al, PLoS submitted]. […] The inventors also assessed other combinations of different numbers of seed-substrates and different numbers of receiving-substrates.
After additional 1-5 days of culture of the 3-D assay of stacked layers, the layers were separated by peeling apart and the amount of cells (e.g., the number, density or quantity) of cells in one or more receiving layer was measured, and optionally the amount of the amount of cells (e.g., the number, density or quantity) of cells in the seed-substrate layer. […]
To measure the quantity of cells in each layer, the layers were incubated in solution of calcein which stains viable cells and the layers were imaged using fluorescent scanner at 100 micron resolution. […]

C=C1[C@@H](C)[C@H]2[C@H](Cc3ccccc3)NC(=O)[C@]23[C@H](OC(C)=O)/C=C/[C@@](C)(O)C(=O)[C@@H](C)C/C=C/[C@H]3[C@@H]1O [cytoclasin D]
invasion of the upper "receiver-substrate" layer by invasive cells: blocked
